In experiment [1] the target is T1, boron transporter (BOR1) BOR1-GFP fusion protein (Arabidopsis thaliana, UniProt Q8VYR7).
T1 construct: made in house; host or cells: Saccharomyces cerevisiae FGY217
The experiment can be described thus: solubilization (extraction) of BOR1-GFP fusion protein from membranes. As to conditions: amphipathic compound at 1.0 wt %. Here is the method:
The ability of PSAs and PSEs to solubilize membrane proteins and to stabilize the structures of membrane proteins was evaluated using boron transporter (BOR1), a membrane protein. BOR1 was isolated from Arabidopsis thaliana, and was expressed in the form of a fusion protein having a GFP tag at the C-terminus in Saccharomyces cerevisiae FGY217 cells. This fusion protein has been proven to have boron transporting activity and is therefore involved in both structural and functional analysis of membrane proteins.
The ability of amphipathic compound PSAs and PSEs to solubilize the boron transporter (BOR1) membrane protein was evaluated.
Specifically, membranes containing BOR1-GFP fusion proteins were treated with an existing amphipathic compound (DDM), PSAs (PSA-C9, PSA-C10 and PSA-C11), or PSEs (PSE-C9, PSE-C11 and PSE-C13) at a concentration of 1.0 wt %. The solubilization efficiencies of PSA-C9, PSA-C10 and PSE-C9 were about 80% similar to the solubilization efficiency of DDM. In particular, the BOR1-GFP protein was quantitatively extracted (˜100%) using PSE-C11 having medium length chains, thus confirming that PSE-C11 is particularly useful for solubilization of BOR1-GFP.
Specifically, Arabidopsis thaliana-derived BOR1 was expressed in the form of a fusion protein having a GFP tag at the C-terminus in Saccharomyces cerevisiae FGY217 cells. The cells were grown in an URA-medium supplemented with 0.1% glucose. 2% galactose was added to the cell culture to induce protein expression and the cells were cultured at 20° C. for 18 hours (see Drew, D. et al., Nat. Protoc. 2008, 3, 784-798.). After culture, the cells were harvested and used to obtain the cell membranes (see Leung, J. et al., Protein Expr. Purif. 2010, 72, 139-146.). Membranes containing BOR1-GFP fusion proteins were diluted to a final total protein concentration of 2.8 mg/mL in PBS (pH7.4) supplemented with 1 wt % DDM, 1 wt % PSAs (PSA-C9, PSA-C10 or PSA-C11) or 1 wt % PSEs (PSE-C9, PSE-C11 or PSE-C13). The diluted samples were incubated at 4° C. for 1 hour with gentle shaking, and insoluble substances were removed by centrifugation at 14,000 g for 1 hour at 4° C. Supernatants containing the dissolved protein samples were incubated for 10 minutes at the specified temperature (35, 40, 45 or 50° C.), and strongly agglutinated proteins were removed by centrifugation at 14,000 g for 10 minutes at 4° C. 200 μL aliquots were taken from the supernatant and injected into a Superose 6 10/300 column equilibrated with 20 mM Tris-HCl (pH 7.5), 150 mM NaCl and 0.03% DDM. Each elution fraction was collected from a retention volume of 6.4 mL (i.e., after 6.4 mL of solution had passed), and added to a well of a clear bottom 96-well plate at a volume of 200 μL. GFP fluorescence generated in each fraction was measured using an excitation wavelength of 470 nm and an emission wavelength of 512 nm.

In experiment [2] the target is T2, human β2 adrenergic receptor (β2AR) (Homo sapiens, UniProt P07550).
T2 construct: Flag; made in house
Description: extraction and solubilization of β2AR directly from cell membranes ([3H]-DHA activity, SEC). As to conditions: for SEC peak of extracted β2AR: buffer not containing amphipathic compounds. How it is done:
The best, PSE-C11, among tested PSAs/PSEs was used to extract β2ARs directly from the cell membranes. Receptors were treated with 1.0 wt % PSE-C11 or DDM, and the activity of the receptors solubilized in PSE-C11 or DDM was measured using a radiolabeled ligand, [^3H]-DHA.
Specifically, experiments to extract and solubilize receptors from the cell membranes were performed as follows. 10 mL of a PSE-C11 amphipathic compound buffer (20 mM HEPES (pH 7.5), 100 mM NaCl, 1.0 wt % PSE-C11) was added to 1 g of an insect cell (Sf9) pellet expressing β2ARs. The mixture was stirred for solubilization for 1 hour. After performing centrifugation at 12,000 g for 20 minutes, a supernatant was collected and loaded onto a M1 Flag column in the presence of 2 mM CaCl2. The column was washed with a PSE-C11 buffer (20 mM HEPES (pH 7.5), 100 mM NaCl, 0.2 wt % amphipathic compound). Receptors were eluted with 20×CMC PSE-C11, 5 mM EDTA and 0.2 mg/mL free Flag peptides. To measure the activity of the receptors solubilized and purified by DDM or PSE-C11, 0.2 pmol of β2ARs was incubated with […] [^3H]-DHA and each amphipathic compound at room temperature for 30 minutes, and the activity of β2ARs was measured. The following procedure was performed in the same manner as described in Example 9-3. Each measurement was performed three times. The receptors solubilized in 20×CMC PSE-C11 or 20×CMC DDM were also applied to SEC under a buffer (20 mM HEPES (pH 7.5), 100 mM NaCl) not containing an amphipathic compound (PSE-C11 or DDM).

SMILES strings stand for the structures.

T2 sequence (P07550 whole entry): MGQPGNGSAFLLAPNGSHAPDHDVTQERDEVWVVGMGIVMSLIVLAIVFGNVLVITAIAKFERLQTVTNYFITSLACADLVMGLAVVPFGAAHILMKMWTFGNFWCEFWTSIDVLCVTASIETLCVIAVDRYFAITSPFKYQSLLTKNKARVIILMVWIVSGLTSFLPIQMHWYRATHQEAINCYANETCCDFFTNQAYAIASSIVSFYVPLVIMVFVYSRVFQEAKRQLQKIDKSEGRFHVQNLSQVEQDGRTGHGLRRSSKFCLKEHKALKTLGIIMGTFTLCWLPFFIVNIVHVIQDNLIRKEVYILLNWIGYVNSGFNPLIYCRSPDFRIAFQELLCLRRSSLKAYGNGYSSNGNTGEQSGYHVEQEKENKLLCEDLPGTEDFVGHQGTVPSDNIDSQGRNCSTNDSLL

Take `CCCCCCCCCCCOCC(COCCCCCCCCCCC)O[C@@H]1OC(CO[C@@H]2OC(CO)[C@@H](O)C(O)C2O)[C@@H](O[C@@H]2OC(CO)[C@@H](O)C(O)C2O)C(O[C@@H]2OC(CO)[C@@H](O)C(O)C2O)C1O[C@@H]1OC(CO)[C@@H](O)C(O)C1O` (some centres unmarked) [PSE-C11]: in experiment [1], the “solubilization efficiency of BOR1-GFP” value is reported as approximately 100%. In addition, the “activity of β2AR extracted from cell membranes ([3H]-DHA)” value in experiment [2] (1.0 wt % PSE-C11 or DDM) was “higher activity than proteins extracted by DDM”. Besides, the “SEC peak of extracted β2AR” value in experiment [2] is recorded as “a distinct monodisperse peak”.
Take `CCCCCCCCCCCCO[C@@H]1O[C@H](CO)[C@@H](O[C@H]2O[C@H](CO)[C@@H](O)[C@H](O)[C@H]2O)[C@H](O)[C@H]1O` [DDM, n-dodecyl-β-D-maltopyranoside, reference compound]: the “solubilization efficiency of BOR1-GFP” value in experiment [1] was “about 80%”. Also, the “SEC peak of extracted β2AR” value in experiment [2] is recorded as “no peak corresponding to the proteins was observed”.
